Data published in patent publication US8846951B2 (AbbVie Inc., priority 2009, dated 2014).
Like-named read-outs stand apart in the source and are kept apart here.

Columns and labels:
5HT2C receptors = molecular target: T1, 5HT2C receptors (Homo sapiens, UniProt P28335); test: Human 5-HT2C functional high throughput screening assay in CHO-K1 cells (calcium flux); assay type: cell-based; parameters: expressed in transfected cells; host or cells: CHO-K1 cells; settings: for EC50: CHO-K1 cells, calcium flux
T1 sequence (P28335 33-458): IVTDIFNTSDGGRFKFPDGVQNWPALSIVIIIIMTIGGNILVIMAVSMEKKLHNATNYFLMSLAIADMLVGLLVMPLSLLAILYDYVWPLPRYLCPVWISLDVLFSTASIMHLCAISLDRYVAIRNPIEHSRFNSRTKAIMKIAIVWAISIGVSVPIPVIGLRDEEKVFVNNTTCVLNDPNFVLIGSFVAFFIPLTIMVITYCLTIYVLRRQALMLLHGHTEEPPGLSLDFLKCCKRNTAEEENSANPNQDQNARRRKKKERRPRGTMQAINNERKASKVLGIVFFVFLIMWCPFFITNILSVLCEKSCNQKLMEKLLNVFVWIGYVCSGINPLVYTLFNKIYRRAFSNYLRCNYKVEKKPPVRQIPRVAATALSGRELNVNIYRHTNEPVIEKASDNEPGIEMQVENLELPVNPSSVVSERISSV
Summary of the method: (§1)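 Calcium flux in CHO-K1 cells overexpressing each receptor, using Ca4 dye with probenecid and FLIPR detection. Top concentration was 10 μM, diluted 1:10 across 6 points, and efficacy was scaled to serotonin.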

5HT2B receptors = molecular target: T2, 5HT2B receptors (Homo sapiens, UniProt P41595); test: Human 5-HT2B functional high throughput screening assay in CHO-K1 cells (calcium flux); assay type: cell-based; settings: for EC50: CHO-K1 cells, calcium flux
T2 construct: expressed in transfected cells; host or cells: CHO-K1 cells
Summary of the method: as §1

[1] = 5-HT2C agonist activity, read-out: EC50
[2] = CHO-K1, 5-HT2C, maximum functional response as percentage relative to the effect of serotonin, read-out: Emax
[3] = 5-HT2B agonist activity, read-out: EC50
[4] = 5-HT2B, maximum functional response as percentage relative to the effect of serotonin
[5] = CHO-K1, 5-HT2C, maximum functional response as percentage relative to the effect of serotonin

T2 sequence (P41595 whole entry): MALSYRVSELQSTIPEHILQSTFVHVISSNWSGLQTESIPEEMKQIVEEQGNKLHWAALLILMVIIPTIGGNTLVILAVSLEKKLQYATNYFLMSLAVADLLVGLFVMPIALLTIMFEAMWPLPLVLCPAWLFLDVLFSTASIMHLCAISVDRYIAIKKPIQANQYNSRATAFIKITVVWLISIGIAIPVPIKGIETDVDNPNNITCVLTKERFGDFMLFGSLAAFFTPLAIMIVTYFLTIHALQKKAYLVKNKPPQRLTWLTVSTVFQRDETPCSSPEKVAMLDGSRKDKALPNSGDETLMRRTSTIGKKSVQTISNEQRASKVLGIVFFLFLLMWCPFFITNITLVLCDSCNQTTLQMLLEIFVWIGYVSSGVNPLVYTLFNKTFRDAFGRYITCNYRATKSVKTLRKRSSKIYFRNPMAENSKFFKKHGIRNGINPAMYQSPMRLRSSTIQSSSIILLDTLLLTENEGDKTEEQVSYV

EC50 (5HT2C receptors; [1]) [nM] | Emax (5HT2C receptors; [2]) [%] | EC50 (5HT2B receptors; [3]) [nM] | Emax (5HT2B receptors; [4]) | SMILES | Emax (5HT2C receptors; [5]) [%] | EC50 (5HT2C receptors; EC50, 5-HT2C agonist activity) [nM] | Emax (5HT2B receptors; CHO-K1) [%] | EC50 (5HT2B receptors; EC50, 5-HT2B agonist activity) [nM] | further results
5 | 100 | > 10000 | inactive | CC(C)c1cccc(-c2ccc3c(c2)C(=O)NC[C@@H]2CN(C)C[C@@H]32)c1 (relative stereo) [Example 379, Trans-8-(3-isopropylphenyl)-2-methyl-2,3,3a,4,5,10b-hexahydropyrrolo[3,4-d][2]benzazepin-6(1H)-one] |  |  |  |  | 
10 | 105 | > 10000 | inactive | CNC(=O)c1cccc(-c2ccc3c(c2)C(=O)NC[C@@H]2CNC[C@@H]32)c1 (relative stereo) [Example 381, N-Methyl-3-[trans-6-oxo-1,2,3,3a,4,5,6,10b-octahydropyrrolo[3,4-d][2]benzazepin-8-yl]benzamide] |  |  |  |  | 
90 | 100 | > 10000 | inactive | CNC(=O)c1cccc(-c2ccc3c(c2)C(=O)NC[C@@H]2CN(C)C[C@@H]32)c1 (relative stereo) [Example 382, N-Methyl-3-[Trans-2-methyl-6-oxo-1,2,3,3a,4,5,6,10b-octahydropyrrolo[3,4-d][2]benzazepin-8-yl]benzamide] |  |  |  |  | 
 |  |  |  | Brc1cccc2c1OCC[C@H]1CNC[C@H]21 (relative stereo) [Example 383, Trans-7-bromo-2,3,3a,4,5,10b-hexahydro-1H-[1]benzoxepino[4,5-c]pyrrole] | 105 | 0.04 | 100 | 6 | 
40 |  | > 10000 |  | O=C1NC[C@@H]2CN(CCF)C[C@H]2c2ccc(-c3ccc(F)cc3)cc21 (relative stereo) [Example 384, Trans-2-(2-fluoroethyl)-8-(4-fluorophenyl)-2,3,3a,4,5,10b-hexahydropyrrolo[3,4-d][2]benzazepin-6(1H)-one] |  |  |  |  | Emax (5HT2C receptors; CHO-K1): 85%; Emax (5HT2B receptors): inactive
0.3 | 95 | > 10000 | inactive | O=C1NC[C@@H]2CNC[C@H]2c2ccc(-c3ccsc3Cl)cc21 (relative stereo) [Example 385, Trans-8-(2-chloro-3-thienyl)-2,3,3a,4,5,10b-hexahydropyrrolo[3,4-d][2]benzazepin-6(1H)-one] |  |  |  |  | 
6 | 95 | > 10000 | inactive | CN1C[C@H]2CNC(=O)c3cc(-c4ccsc4Cl)ccc3[C@@H]2C1 (relative stereo) [Example 387, Trans-8-(2-chloro-3-thienyl)-2-methyl-2,3,3a,4,5,10b-hexahydropyrrolo[3,4-d][2]benzazepin-6(1H)-one] |  |  |  |  | 
8 | 90 | > 10000 | inactive | CN1C[C@H]2CNC(=O)c3cc(-c4ccc5c(c4)C(=O)CCO5)ccc3[C@@H]2C1 (relative stereo) [Example 390, Trans-2-methyl-8-(4-oxo-3,4-dihydro-2H-chromen-6-yl)-2,3,3a,4,5,10b-hexahydropyrrolo[3,4-d][2]benzazepin-6(1H)-one] |  |  |  |  | 
 |  |  |  | Clc1ccc2c(c1)[C@@H]1CNC[C@H]1CCN2 (relative stereo) [Example 391, Trans-9-chloro-1,2,3,3a,4,5,6,10b-octahydropyrrolo[3,4-d][1]benzazepine] | 90 | 90 | 70 | 20 | 
 |  |  |  | Clc1cccc2c1NCC[C@@H]1CNC[C@@H]21 (relative stereo) [Example 392, Trans-7-chloro-1,2,3,3a,4,5,6,10b-octahydropyrrolo[3,4-d][1]benzazepine] | 100 | 0.7 | 65 | 40 | 
 |  |  |  | Clc1cc(Br)c2c(c1)[C@@H]1CNC[C@@H]1CCO2 (relative stereo) [Example 393, Cis-7-bromo-9-chloro-2,3,3a,4,5,10b-hexahydro-1H-[1]benzoxepino[4,5-c]pyrrole] | 60 | 200 | 20 | 100 | 
 |  |  |  | Clc1cc(Br)c2c(c1)[C@H]1CNC[C@@H]1CCO2 (relative stereo) [Example 394, Trans-7-bromo-9-chloro-2,3,3a,4,5,10b-hexahydro-1H-[1]benzoxepino[4,5-c]pyrrole] | 90 | 20 | 45 | 100 | 
 |  |  |  | CN1C[C@H]2CCN(C)c3ccc(Cl)cc3[C@@H]2C1 (relative stereo) [Example 395, Trans-9-chloro-2,6-dimethyl-1,2,3,3a,4,5,6,10b-octahydropyrrolo[3,4-d][1]benzazepine] | 50 | 500 | 65 | 80 | 
 |  |  |  | Brc1ccc2c(c1)[C@@H]1CNC[C@H]1CCN2 (relative stereo) [Example 396, Trans-9-bromo-1,2,3,3a,4,5,6,10b-octahydropyrrolo[3,4-d][1]benzazepine] | 90 | 30 | 60 | 6 | 
5 | 95 | > 10000 | inactive | c1ccc(-c2cccc3c2OCC[C@H]2CNC[C@H]32)cc1 (relative stereo) [Example 397, Trans-7-phenyl-2,3,3a,4,5,10b-hexahydro-1H-[1]benzoxepino[4,5-c]pyrrole] |  |  |  |  | 
 |  |  |  | Fc1ccc(COc2cccc3c2OCC[C@H]2CNC[C@H]32)cc1 (relative stereo) [Example 398, Trans-7-[(4-fluorobenzyl)oxy]-2,3,3a,4,5,10b-hexahydro-1H-[1]benzoxepino[4,5-c]pyrrole] | 90 | 2 | 100 | 3 | 
90 | 90 | > 10000 | inactive | Fc1ccc(-c2cccc3c2OCC[C@H]2CNC[C@H]32)cc1 (relative stereo) [Example 399, Trans-7-(4-fluorophenyl)-2,3,3a,4,5,10b-hexahydro-1H-[1]benzoxepino[4,5-c]pyrrole] |  |  |  |  | 
800 | 70 | > 10000 | inactive | CN1C[C@@H]2CCOc3c(-c4ccc(F)cc4)cccc3[C@H]2C1 (relative stereo) [Example 400, Trans-7-(4-fluorophenyl)-2-methyl-2,3,3a,4,5,10b-hexahydro-1H-[1]benzoxepino[4,5-c]pyrrole] |  |  |  |  | 
800 | 70 | > 10000 | inactive | Fc1ccc(-c2cccc3c2NCC[C@@H]2CNC[C@@H]32)cc1 (relative stereo) [Example 401, Trans-7-(4-fluorophenyl)-1,2,3,3a,4,5,6,10b-octahydropyrrolo[3,4-d][1]benzazepine] |  |  |  |  | 
 |  |  |  | COC(=O)c1cccc2c1NCC[C@@H]1CNC[C@@H]21 (relative stereo) [Example 402, Methyl trans-1,2,3,3a,4,5,6,10b-octahydropyrrolo[3,4-d][1]benzazepine-7-carboxylate] | 100 | 30 | 75 | 200 | 
 |  |  |  | Cc1noc(C)c1-c1ccc2c(c1)C(=O)NC[C@@H]1CNC[C@@H]21 (single isomer, unassigned) [Example 245, Trans-8-(3,5-dimethylisoxazol-4-yl)-1,2,3,3a,4,5-hexahydrobenzo[e]pyrrolo[3,4-c]azepin-6(10bH)-one] | 100 | 50 | 15 | 2000 | 
0.4 | 105 | > 10000 | inactive | C[C@H](O)c1cc(-c2ccc3c(c2)C(=O)NC[C@H]2CN(C)C[C@H]32)ccc1F (single isomer, unassigned) [Example 352] |  |  |  |  | 

SMILES | EC50 (5HT2C receptors; [1]) [nM] | Emax (5HT2C receptors; [2]) [%] | EC50 (5HT2B receptors; [3]) [nM] | Emax (5HT2B receptors; [4]) | Emax (5HT2C receptors; [5]) [%] | EC50 (5HT2C receptors; EC50, 5-HT2C agonist activity) [nM] | Emax (5HT2B receptors; CHO-K1) [%] | EC50 (5HT2B receptors; EC50, 5-HT2B agonist activity) [nM] | further results
CC(C)COc1ccc2c(c1)C(=O)NC[C@@H]1CN(CCF)C[C@@H]21 (relative stereo) [Example 380, Trans-2-(2-fluoroethyl)-8-isobutoxy-2,3,3a,4,5,10b-hexahydropyrrolo[3,4-d][2]benzazepin-6(1H)-one] | 300 |  | > 10000 |  |  |  |  |  | Emax (5HT2C receptors; CHO-K1): 75%; Emax (5HT2B receptors): inactive
c1ccc2c(c1)NCC[C@@H]1CNC[C@@H]21 (relative stereo) [Example 389, Trans-1,2,3,3a,4,5,6,10b-octahydropyrrolo[3,4-d][1]benzazepine] | 900 |  | 400 |  | 95 |  | 70 |  | 
Cc1noc(C)c1-c1ccc2c(c1)C(=O)NC[C@@H]1CNC[C@@H]21 (single isomer, unassigned) [Example 292, Trans-8-(3,5-dimethyl-1,2-oxazol-4-yl)-2,3,3a,4,5,10b-hexahydropyrrolo[3,4-d][2]benzazepin-6(1H)-one] |  |  |  | 15% |  |  |  |  | EC50 (5HT2C receptors; 5-HT2C agonist activity): 50 nM; Emax (5HT2C receptors; 5-HT2C, maximum functional response as percentage relative to the effect of serotonin): 100%; EC50 (5HT2B receptors; 5-HT2B agonist activity): 2000 nM
